Our source for the GI50 and TGI values is PubChem BioAssay (NCI).

As a reminder, the GI50 is the concentration giving 50% growth inhibition. In general, TGI refers to the concentration at which net growth stops. A higher TGI goes with lower sensitivity of the cells.

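Each compound was tested at five concentrations against cells in 96-well plates for 48 hours. At the GI50, growth is halved. TGI: concentration producing complete growth inhibition.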 Bounds are passed on as bounds.

Holding throughout (test): DTP human tumour cell line panel, 48 h
Assay [1] deals with M14 melanoma.
Assay [2] concerns SK-MEL-2 melanoma.
The subject of assay [3] is HCT-116 colon.
Assay [4] has as its system MALME-3M melanoma.
For assay [5], the system named is K-562 leukemia.
Assay [6] has as its system HOP-62 NSCLC.
Assay [7] has as its system A549 NSCLC.
Assay [8] relates to ACHN renal.
The subject of assay [9] is NCI-H460 lung.
The subject of assay [10] is LOX IMVI melanoma.

Regarding `Nc1ccc(N)c2c1C(=O)c1cccc([N+](=O)[O-])c1C2=O`, the GI50 was 3.37 µM in assay [1]; 7.74 µM in [2]; 2.73 µM in [3]; 5.69 µM in assay [4]; 5.45 µM in [5]; 1.62 µM in [6]. For the same compound, the GI50 in assay [7] was 1.47 µM; in assay [8], 1.93 µM; in assay [9], 0.206 µM; in assay [10], 1.84 µM. Also, the total growth inhibition concentration (TGI) in [1] was > 100 µM; in assay [2] it was > 100 µM; in assay [3], > 48.2 µM; in assay [4], > 100 µM; in assay [5] it was > 100 µM; in assay [6], 7.88 µM. In addition, the values for the TGI in assay [8], in assay [9] and in assay [10] were > 100 µM, 1.27 µM and > 100 µM, respectively.
